# From patent publication US12503452B2 (Curza Global, LLC, priority 2019, dated 2025)
# Counter-ions that a name gives are not always drawn. Like-named read-outs stand apart in the source and are kept apart here.
# How the values were obtained:
# [1] = test system: E. coli S30 extract (bacterial protein synthesis); assay: E. coli S30 extract coupled transcription-translation luciferase assay (inhibition of bacterial protein synthesis); assay type: biochemical; settings: read-out: S30 IC50 (μM/% inhib.)
# Summary of the method: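 Luminescent read-out of luciferase made from pBESTluc DNA by E. coli S30 extract after 1 h at 37 °C with compound in an 8-point 2-fold series. Background came from no-DNA reactions. Percent inhibition was calculated against water-only controls.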
# [2] = biological target: Rabbit Reticulocyte Lysate (eukaryotic protein synthesis); assay: Rabbit reticulocyte lysate luciferase assay (inhibition of eukaryotic protein synthesis); assay type: biochemical; settings: read-out: Rabbit reticulocyte IC50 (μM/% inhib.)
# Summary of the method: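 Compounds were tested in 8-point 2-fold dilution series for blocking luciferase synthesis in nuclease-treated rabbit reticulocyte lysate (30° C., 90 minutes). Luminescence read-out, corrected by no-RNA background, was expressed as % inhibition against water-only reactions.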
# A. baumannii (Ab) = assay: Broth microdilution minimum inhibitory concentration (MIC); assay type: cell-based; settings: Acinetobacter baumannii, read-out: Ab + bicarb MIC
# Summary of the method: (§1)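 Two-fold compound series, 8 points in triplicate; medium CAMHB ± NaHCO3 (6.25 or 25 mM final) or ± 0–50% heat-inactivated human serum; inoculum 5×10^4 CFU/well; growth-method 0.5 McFarland suspensions; modified CLSI M07-A9.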
# E. coli (Ec) = assay: as above; assay type: cell-based; settings: Escherichia coli, read-out: E. coli + bicarb MIC
# Summary of the method: as §1
# E. faecalis (Ef) = assay: as above; assay type: cell-based; settings: Enterococcus faecalis, read-out: Ef + bicarb MIC
# Summary of the method: as §1
# P. aeruginosa (Pa) = assay: as above; assay type: cell-based; settings: Pseudomonas aeruginosa, read-out: Pa MIC + bicarb
# Summary of the method: as §1
# S. aureus (Sa) = assay: as above; assay type: cell-based; settings: Staphylococcus aureus, read-out: Sa + bicarb MIC
# Summary of the method: as §1
# [3] = class by IC50 or % inhibition @ 1 μM
# [4] = A. baumannii, growth medium supplemented with sodium bicarbonate
# [5] = E. coli, growth medium supplemented with sodium bicarbonate
# [6] = E. faecalis, growth medium supplemented with sodium bicarbonate
# [7] = P. aeruginosa, growth medium supplemented with sodium bicarbonate
# [8] = S. aureus, growth medium supplemented with sodium bicarbonate
# [9] = A. baumannii, growth medium with sodium bicarbonate
# [10] = E. coli, growth medium with sodium bicarbonate
# [11] = E. faecalis, growth medium with sodium bicarbonate
# [12] = P. aeruginosa, growth medium with sodium bicarbonate
# [13] = S. aureus, growth medium with sodium bicarbonate
SMILES,"IC50 [1, 3] [µM]","IC50 [2, 3] [µM]",MIC (A. baumannii (Ab); [4]) [µg/mL],MIC (E. coli (Ec); [5]) [µg/mL],MIC (E. faecalis (Ef); [6]) [µg/mL],MIC (P. aeruginosa (Pa); [7]) [µg/mL],MIC (S. aureus (Sa); [8]) [µg/mL],MIC (A. baumannii (Ab); [9]) [µg/mL],MIC (E. coli (Ec); [10]) [µg/mL],MIC (E. faecalis (Ef); [11]) [µg/mL],MIC (P. aeruginosa (Pa); [12]) [µg/mL],MIC (S. aureus (Sa); [13]) [µg/mL],IC50 ([1]; % inhibition @ 1 μM) [µM],IC50 ([2]; % inhibition @ 1 μM) [µM],MIC (A. baumannii (Ab)) [µg/mL],MIC (E. coli (Ec)) [µg/mL],MIC (E. faecalis (Ef)) [µg/mL],MIC (P. aeruginosa (Pa)) [µg/mL],MIC (S. aureus (Sa)) [µg/mL]
CC(C)(N)C(=O)N1CCN(C(=O)Nc2ccn(-c3ccc(C[C@H](N)C(=O)N4CCCC(N)CC4)cc3)c(=O)n2)CC1 (some centres unmarked) [Compound 148],< 0.5,> 1,> 32,> 32,> 32,> 32,> 32,,,,,,,,,,,,
CC(C)(N)C(=O)N1CCN(C(=O)Nc2ccn(-c3ccc(CN(CCF)[C@H]4CC[C@H](N)CC4)cc3)c(=O)n2)CC1 [Compound 138],0.5 to 1,> 1,> 32,< 8,> 32,> 32,< 8,,,,,,,,,,,,
CC(COc1ccc(-n2ccc(NC(=O)N3CCN(C(=O)C(C)(C)N)CC3)nc2=O)cc1)N1CCCC(N)CC1 (centres unmarked) [Compound 191],0.5 to 1,> 1,,,,,,> 32,< 8,8 to 32,> 32,< 8,,,,,,,
CN(Cc1ccc(-n2ccc(NC(=O)N3CCN(C(=O)C(C)(C)N)CC3)nc2=O)cc1F)C1CCC(N)CC1 (centres unmarked) [Compound 278],< 0.5,> 1,,,,,,8 to 32,< 8,< 8,8 to 32,< 8,,,,,,,
CN(Cc1ccc(-n2ccc(NC(=O)N3CCN(C(=O)C(C)(C)N)CC3)nc2=O)cc1)[C@@H]1CC[C@H](N)C1 [Compound 115],< 0.5,> 1,> 32,< 8,8 to 32,> 32,< 8,,,,,,,,,,,,
CC(COc1ccc(-n2ccc(NC(=O)N3CCN(C(=O)C(C)(C)N)CC3)nc2=O)cc1)N1CC[C@H](CN)C1 (some centres unmarked) [Compound 190],< 0.5,> 1,,,,,,> 32,< 8,< 8,> 32,< 8,,,,,,,
CCOC(=O)C1(CN)CN(Cc2ccc(-n3ccc(NC(=O)N4CCN(C(=O)C(C)(C)N)CC4)nc3=O)cc2)C1 [Compound 201],> 1,> 1,,,,,,> 32,> 32,> 32,> 32,> 32,,,,,,,
CCN(Cc1ccc(-n2ccc(NC(=O)N3CCN(C(=O)[C@@H](C)NC(=O)[C@@H](C)N)CC3)nc2=O)cc1)C1CCC(N)CC1 (some centres unmarked) [Compound 359],,,,,,,,> 32,> 32,> 32,> 32,8 to 32,> 1,> 1,,,,,
CC(C)(N)C(=O)N1CCN(C(=O)Nc2ccn(-c3ccc(CCN4CCCC(NC5CC5)CC4)cc3)c(=O)n2)CC1 (centres unmarked) [Compound 29],> 1,> 1,> 32,< 8,> 32,> 32,8 to 32,,,,,,,,,,,,
CC(C)(N)C(=O)N1CCN(C(=O)Nc2ccn(-c3ccc(CCN[C@H]4CC[C@@H](CN)C4)cc3)c(=O)n2)CC1 (stereo in doubt) [Compound 177],> 1,> 1,,,,,,> 32,< 8,> 32,> 32,< 8,,,,,,,
CCN(Cc1ccc(-n2ccc(NC(=O)N3CCN(C(=O)C(C)(C)N)C[C@H]3C)nc2=O)cc1)C1CCC(N)CC1 (some centres unmarked) [Compound 275],< 0.5,> 1,,,,,,< 8,< 8,< 8,8 to 32,< 8,,,,,,,
CC(C)(N)CC1(F)CCN(C(=O)Nc2ccn(-c3ccc(CN4CCC(N)CC4)cc3)c(=O)n2)CC1 [Compound 233],> 1,> 1,,,,,,> 32,< 8,> 32,> 32,< 8,,,,,,,
CNC1CCCN(CCc2ccc(-n3ccc(NC(=O)N4CCN(C(=O)C(C)(C)N)CC4)nc3=O)cc2)CC1 (centres unmarked) [Compound 33],0.5 to 1,> 1,> 32,< 8,> 32,> 32,8 to 32,,,,,,,,,,,,
CCN(Cc1ccc(-n2ccc(NC(=O)N3CCN(C(=O)C(C)(C)N)CC3)nc2=O)cc1)[C@H]1CC[C@H](N)CC1 [Compound 119],< 0.5,> 1,< 8,< 8,< 8,< 8,< 8,,,,,,,,,,,,
C[C@@H]1CN(C(=O)Nc2ccn(-c3ccc(CCN4CCCC(N)CC4)cc3)c(=O)n2)CCN1C(=O)C(C)(C)N (some centres unmarked) [Compound 71],< 0.5,> 1,< 8,< 8,< 8,8 to 32,< 8,,,,,,,,,,,,
"CO[C@H]1C[C@@H](N(C)Cc2ccc(-n3ccc(NC(=O)N4CCN(C(=O)C(C)(C)N)CC4)nc3=O)cc2)CC[C@@H]1N [Compound 340, hydrochloride salt]",0.5 to 1,> 1,,,,,,,,,,,,,> 32,< 8,> 32,> 32,8 to 32
CN(Cc1ccc(-n2ccc(NC(=O)N3CCN(C(=O)C(C)(C)N)CC3)nc2=O)cc1)[C@H]1CC[C@H](N)C1 [Compound 124],< 0.5,> 1,> 32,< 8,< 8,> 32,< 8,,,,,,,,,,,,
CC(Cc1ccc(-n2ccc(NC(=O)N3CCN(C(=O)C(C)(C)N)CC3)nc2=O)cc1)N(C)C[C@H]1C[C@@H](N)C1 (some centres unmarked) [Compound 160],< 0.5,> 1,> 32,< 8,< 8,> 32,< 8,,,,,,,,,,,,
CC(Cc1ccc(-n2ccc(NC(=O)N3CCN(C(=O)C(C)(C)N)CC3)nc2=O)cc1)N(C)C1CCC(CN)CC1 (centres unmarked) [Compound 153],> 1,> 1,> 32,< 8,> 32,> 32,< 8,,,,,,,,,,,,
C[C@@H]1CN(C(=O)C(C)(C)N)CCN1C(=O)Nc1ccn(-c2ccc(CN3CCC(CN)CC3)cc2)c(=O)n1 [Compound 82],< 0.5,> 1,8 to 32,< 8,< 8,> 32,< 8,,,,,,,,,,,,
CC(C)(N)C(=O)N1CCN(C(=O)Nc2ccn(-c3ccc(CCN4CCCC(N)CC4)c(F)c3)c(=O)n2)CC1 (centres unmarked) [Compound 141],< 0.5,> 1,> 32,< 8,< 8,8 to 32,< 8,,,,,,,,,,,,
C[C@H]1CN(Cc2ccc(-n3ccc(NC(=O)N4CCN(C(=O)C(C)(C)N)CC4)nc3=O)cc2)CC[C@H]1N [Compound 211],0.5 to 1,> 1,,,,,,> 32,< 8,8 to 32,> 32,< 8,,,,,,,
CC(Cc1ccc(-n2ccc(NC(=O)N3CCN(C(=O)C(C)(C)N)CC3)nc2=O)cc1)NC[C@@H]1CCC[C@@H](N)C1 (mixture of isomers) [Compound 155],> 1,> 1,> 32,< 8,> 32,> 32,8 to 32,,,,,,,,,,,,
CC(C)(N)C(=O)N1CCN(C(=O)Nc2ccn(-c3ccc(CNCC4CC(N)C4)cc3)c(=O)n2)CC1 (centres unmarked) [Compound 126],< 0.5,> 1,> 32,< 8,> 32,> 32,8 to 32,,,,,,,,,,,,
C[C@@](N)(CO)C(=O)N1CCN(C(=O)Nc2ccn(-c3ccc(CCN4CCCC(N)CC4)cc3)c(=O)n2)CC1 (some centres unmarked) [Compound 35],> 1,> 1,> 32,< 8,< 8,8 to 32,< 8,,,,,,,,,,,,
CC(C)(N)C(=O)N1CCN(C(=O)Nc2ccn(-c3ccc(CN4CC(C5CCNCC5)C4)cc3)c(=O)n2)CC1 [Compound 377],,,,,,,,> 32,< 8,> 32,> 32,< 8,< 0.5,> 1,,,,,
